Here are results for 13 compounds from ChEMBL document CHEMBL1201862, “PubChem BioAssay data set” (2004).

What all share (test): DTP human tumour cell line panel, 48 h
The subject of experiment [1] is SW-620.
For experiment [2], the system named is SK-MEL-2.
In experiment [3] the test system is UACC-62.
The subject of experiment [4] is OVCAR-3.
Experiment [5] concerns HCC 2998.
Experiment [6] concerns RPMI-8226.
Experiment [7] relates to EKVX.
In experiment [8] the test system is IGROV-1.
For experiment [9], the system named is UACC-257.
Experiment [10] has as its system A549.
In experiment [11] the test system is SNB-19.
The test system of experiment [12] is HOP-92.
Experiment [13] deals with OVCAR-8.
Experiment [14] deals with CCRF-CEM.
For experiment [15], the system named is ACHN.
In experiment [16] the test system is M14.
Experiment [17] deals with TK-10.
Experiment [18] deals with SR.

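Cells were grown in 96-well plates and exposed to each compound for 48 hours at five concentrations; endpoints were interpolated linearly between bracketing concentrations, or set to the highest concentration if not reached. The concentration for 50% growth inhibition is given as GI50.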 Calls of active or inactive are those of the source. No stated cut-off is given here; in the data, active = GI50 up to about 1.1 µM and inactive = higher.

As for `CSc1nc(CO)c(CO)n1C`, the GI50 in experiment [1], in experiment [2], in [3], in experiment [4], in experiment [5] and in [6] was > 100 µM (inactive) in each case. Besides, the GI50 in experiment [7], in experiment [8], in [9], in [10], in experiment [11] and in experiment [12] was > 100 µM (inactive) each time. The GI50 in [13] and in [14] was > 100 µM (inactive) in each case.
Turning to `CCP(C)(C)=O`, the GI50 in [15], in experiment [1], in [2], in experiment [3], in [4] and in experiment [16] was > 100 µM (inactive) throughout. Further, the GI50 in [5], in experiment [6], in experiment [7], in [8], in experiment [9] and in experiment [10] was > 100 µM (inactive) throughout. Moreover, the GI50 in experiment [11], in [13], in experiment [17] and in experiment [14] was > 100 µM (inactive) throughout.
As to `O=c1[c-](-c2ccccc2)[se]c(-c2ccccc2)[n+]1-c1ccccc1`, the GI50 was 12.5 µM (inactive) in [1]; 6.55 µM (inactive) in [2]; 13 µM (inactive) in experiment [3]; 10 µM (inactive) in experiment [4]; 4.99 µM (inactive) in [16]; 6.35 µM (inactive) in [5]. Moreover, the GI50 in experiment [6] is 29.1 µM (inactive); in experiment [7], 13.5 µM (inactive); in experiment [8], 3.71 µM (inactive); in experiment [9], 12.8 µM (inactive); in experiment [10] it was 16.3 µM (inactive); in [11], 7.52 µM (inactive). For the same compound, the GI50 in [12] was 18.6 µM (inactive); in experiment [13] it was 3.8 µM (inactive); in [17] it was 8.32 µM (inactive); in experiment [14] it was 3.87 µM (inactive).
Turning to `COc1cc(C2C(Cl)C(=O)N2NC(=O)c2ccc(N)cc2)cc(Br)c1O` (stereo not given), the GI50 in [15] was 19.2 µM (inactive); in [1], 15.2 µM (inactive); in [2], 17 µM (inactive); in [3], 14 µM (inactive); in experiment [4], 8.38 µM (inactive); in [16], 15.5 µM (inactive). Besides, the GI50 was 12 µM (inactive) in [5]; 24.4 µM (inactive) in [6]; 13.2 µM (inactive) in experiment [7]; 19.7 µM (inactive) in [8]; 19 µM (inactive) in [9]; 21.5 µM (inactive) in [10]. The GI50 in [11] is 11.7 µM (inactive); in experiment [12], 23 µM (inactive); in [13], 28.4 µM (inactive); in experiment [17] it was 18.5 µM (inactive); in experiment [14], 2.92 µM (inactive).
Consider `CSc1s[s+]c(SC)c1[O-]`, for which the GI50 in experiment [15] is 38.4 µM (inactive); in [1], 17.8 µM (inactive); in experiment [2] it was 32.3 µM (inactive); in experiment [3], 14.4 µM (inactive); in [4], 26.5 µM (inactive); in experiment [16], 17.5 µM (inactive). Moreover, the GI50 was > 100 µM (inactive) in experiment [5]; 75.7 µM (inactive) in experiment [7]; 83.6 µM (inactive) in experiment [8]; 17.7 µM (inactive) in experiment [9]; > 100 µM (inactive) in experiment [10]; > 100 µM (inactive) in [11]. For the same compound, the GI50 is 33 µM (inactive) in experiment [12]; 20.1 µM (inactive) in experiment [13]; 9.95 µM (inactive) in [18]; > 100 µM (inactive) in experiment [17]; 8.77 µM (inactive) in experiment [14].
Consider `Cc1cc2c(cc1C)[n+]([O-])c(C(=O)C/C(=N/NC(=O)CC#N)C(=O)Nc1ccccc1C(F)(F)F)c(C)[n+]2[O-]`, for which the GI50 was 29.7 µM (inactive) in [15]; 50.6 µM (inactive) in experiment [1]; 39.5 µM (inactive) in [2]; 34 µM (inactive) in experiment [3]; 37 µM (inactive) in experiment [4]; 44.2 µM (inactive) in [16]. Further, the GI50 in experiment [5] is 65.5 µM (inactive); in experiment [7], 53.1 µM (inactive); in experiment [8], > 100 µM (inactive); in [9] it was 44.6 µM (inactive); in experiment [10], 35 µM (inactive); in [11], 75 µM (inactive). Moreover, the values for the GI50 in [13], in experiment [17] and in [14] were 50.8 µM (inactive), > 100 µM (inactive) and 25.4 µM (inactive), respectively.
For `N#CCc1ccc(/C(C#N)=C2/OC(=N)C(c3ccc(CC#N)cc3)C2=O)cc1` (stereo not given), the GI50 in experiment [15], in [1], in experiment [2], in [3], in experiment [4] and in [16] was > 100 µM (inactive) each time. In addition, the GI50 in experiment [6], in experiment [7], in experiment [8], in [9], in experiment [10] and in experiment [11] was > 100 µM (inactive) throughout. Besides, the GI50 in experiment [12], in [13], in experiment [17] and in experiment [14] was > 100 µM (inactive) each time.
As to `O=C(O)/C(=C/c1ccccc1[N+](=O)[O-])c1ccccc1`, the GI50 in experiment [15], in experiment [1], in experiment [2], in [3], in [4] and in [16] was > 100 µM (inactive) throughout. Moreover, the GI50 in [5], in experiment [6], in [7], in experiment [8], in experiment [9] and in experiment [10] was > 100 µM (inactive) in each case. In addition, the GI50 in experiment [11], in [13], in experiment [18] and in [17] was > 100 µM (inactive) in each case.
Turning to `CC(=O)Nc1ccc(-c2nnc(SCC(=O)Nc3ccccc3Cl)o2)cc1`, the GI50 is > 100 µM (inactive) in [15]; > 100 µM (inactive) in experiment [1]; > 100 µM (inactive) in experiment [2]; 93.1 µM (inactive) in [4]; > 100 µM (inactive) in [16]; > 100 µM (inactive) in experiment [5]. The GI50 in [8], in [9], in experiment [10], in [11], in [13] and in experiment [17] was > 100 µM (inactive) throughout. For the same compound, the GI50 in experiment [14] was > 100 µM (inactive).
As for `O=C1C=C(Nc2ccc(Br)cc2)c2ccccc2C1=O`, the GI50 in experiment [15] was 4.75 µM (inactive); in experiment [1], 12.9 µM (inactive); in [2] it was 15.5 µM (inactive); in [3], 4.39 µM (inactive); in experiment [4] it was 7.1 µM (inactive); in experiment [16], 14.9 µM (inactive). Besides, the GI50 was 15 µM (inactive) in experiment [5]; 6.73 µM (inactive) in [6]; 18.5 µM (inactive) in [7]; 14.8 µM (inactive) in experiment [8]; 13.5 µM (inactive) in experiment [9]; 12.7 µM (inactive) in experiment [10]. For the same compound, the GI50 is 15.6 µM (inactive) in experiment [11]; 12.5 µM (inactive) in [13]; 2.54 µM (inactive) in [18]; 19.6 µM (inactive) in experiment [17]; 11 µM (inactive) in experiment [14].
Take `CC(C)N(C(=O)C12C3C4C1C1C2C3C41C(=O)O)C(C)C` (stereo not given): the GI50 in experiment [15], in experiment [1], in [2], in [3], in experiment [4] and in [16] was > 100 µM (inactive) each time. In addition, the GI50 in experiment [5], in experiment [6], in [7], in [8], in experiment [9] and in experiment [10] was > 100 µM (inactive) each time. Moreover, the GI50 in experiment [11], in experiment [13], in experiment [17] and in [14] was > 100 µM (inactive) each time.
For `Cc1cccc2nc3cccc(C(=O)NCCN(C)C)c3nc12`, the GI50 in [15] is 0.41 µM (active); in experiment [1], 0.272 µM (active); in [2] it was 1.27 µM (inactive); in [3] it was 0.644 µM (active); in experiment [4] it was 1.36 µM (inactive); in experiment [16], 0.766 µM (active). Further, the GI50 in experiment [5] is 1.04 µM (active); in experiment [7], 0.443 µM (active); in experiment [8] it was 0.525 µM (active); in [9] it was 0.491 µM (active); in experiment [10], 0.383 µM (active); in experiment [11] it was 0.525 µM (active). Also, the GI50 in experiment [12] is 0.605 µM (active); in [13], 0.673 µM (active); in experiment [17], 0.433 µM (active); in [14], 0.627 µM (active).
For the compound `CC(=O)Nc1ccc(Cl)c(Cl)c1`, the GI50 in experiment [15] is > 100 µM (inactive); in experiment [1], > 100 µM (inactive); in experiment [3], > 100 µM (inactive); in [4], > 100 µM (inactive); in experiment [16] it was 40.4 µM (inactive); in experiment [5], > 100 µM (inactive). Besides, the GI50 in experiment [6], in experiment [7], in [8], in [9], in [10] and in [11] was > 100 µM (inactive) throughout. The GI50 in experiment [13], in experiment [18], in [17] and in experiment [14] was > 100 µM (inactive) throughout.
